Tests used:
[1] = target: GluRS (Escherichia coli, UniProt P04805); conditions: read-out: IC50 for inhibition of the rate of cell-free synthesis of turboGFP; cell-free reaction at 30° C., fluorescence monitored for 5 h, maximal rate of fluorescence change
Description: (§1) Cell-free extracts or lysates were generated to maximize ribosome yield using rapid growth of high cell density fermentations of E. coli strain KGK10 (Knapp, Goerke et al. (2007) Biotechnol Bioeng, 97, 901-8), essentially as described by Liu et al.(Liu, Zawada et al. (2005) Biotechnol Prog, 21, 460-5) DL-dithiothreitol was not added to the cell lysate following homogenization. A modified “run-off procedure” was used to prepare the cell-free extract. Fermentation volume to generate sufficient cell-free extract was typically 2.5× the desired cell-free reaction volume. To inactivate the reducing activity of the cell extract, iodoacetamide (IAM) at various concentrations was added as previously described (Yang, Kanter et al. (2004) Biotechnol Prog, 20, 1689-96). Gene expression was under the control of the T7 promoter. In order to facilitate translation initiation, genes were synthesized (DNA 2.0, Menlo Park, Calif.) with synonymous codons at the 5′ end of the gene with ATG start codon (N-terminal methionine residue) optimized for mRNA instability as measured by mRNA ΔGfold in the −6 to +37 positions (Kudla, Murray et al. (2009) Science, 324, 255-258) and rare codons were replaced. […]

[2] = target: T1, PheRS (Escherichia coli, UniProt P08312); experiment: Inhibition of the rate of cell-free synthesis of turboGFP by Phe-SA; assay type: biochemical, E. coli
T1 construct: endogenous in cells; host or cells: cell-free extract (lysate) of E. coli strain KGK10
Description: as §1

[3] = target: T2, endogenous activity of PheRS (Escherichia coli, UniProt P08312); experiment: Cell-free synthesis of turboGFP Y50TAG with added uncharged tRNAs in the presence of Phe-SA; assay type: biochemical, E. coli; conditions: 12 nM Phe-SA; uncharged tRNACUA^Phe and tRNAGAA^Phe added
T2 construct: endogenous in cells; host or cells: cell-free extract (lysate) of E. coli strain KGK10
Procedure: A control reaction containing turboGFP Y50TAG plasmid only yields no fluorescence, consistent with the ca. 6 kD truncated product (cf FIG. 22). The incorporation of para-acetyl phenylalanine at position 50 using the UAG-specific E. coli phenylalanine tRNACUA^Phe and tRNAGAA^Phe was measured in the presence 12 nM Phe-SA inhibitor, to inhibit the endogenous activity of PheRS (cf. FIG. 19c). […] In contrast, addition of various concentrations of both charged pAF-tRNACUA^Phe and Phe-tRNAGAA^Phe results in 13-20% of the wild-type fluorescence after 5 h, consistent with significant protein synthesis with incorporation of pAF at position 50.

T1 sequence (P07395 whole entry): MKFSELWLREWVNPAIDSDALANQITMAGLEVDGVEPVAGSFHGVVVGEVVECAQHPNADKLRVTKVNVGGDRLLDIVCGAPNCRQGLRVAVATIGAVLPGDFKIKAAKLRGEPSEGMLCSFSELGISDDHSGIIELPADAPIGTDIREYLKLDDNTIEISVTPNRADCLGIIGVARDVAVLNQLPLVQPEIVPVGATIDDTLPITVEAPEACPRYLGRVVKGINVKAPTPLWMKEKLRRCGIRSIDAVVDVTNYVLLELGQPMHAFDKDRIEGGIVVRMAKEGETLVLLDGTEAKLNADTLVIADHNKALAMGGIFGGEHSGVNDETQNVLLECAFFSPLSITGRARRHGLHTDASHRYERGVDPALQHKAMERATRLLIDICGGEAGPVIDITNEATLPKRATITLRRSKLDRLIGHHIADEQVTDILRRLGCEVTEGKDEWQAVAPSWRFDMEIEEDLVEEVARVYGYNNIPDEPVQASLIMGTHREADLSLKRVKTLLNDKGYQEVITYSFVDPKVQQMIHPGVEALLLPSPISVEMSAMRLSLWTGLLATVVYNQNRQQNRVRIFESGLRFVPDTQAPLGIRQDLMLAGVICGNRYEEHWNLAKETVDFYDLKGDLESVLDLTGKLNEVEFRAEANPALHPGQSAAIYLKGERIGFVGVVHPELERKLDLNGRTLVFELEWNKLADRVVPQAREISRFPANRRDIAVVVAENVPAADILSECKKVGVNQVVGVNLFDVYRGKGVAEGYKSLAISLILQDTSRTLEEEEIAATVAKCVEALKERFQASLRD
T1 sequence (P08312 whole entry): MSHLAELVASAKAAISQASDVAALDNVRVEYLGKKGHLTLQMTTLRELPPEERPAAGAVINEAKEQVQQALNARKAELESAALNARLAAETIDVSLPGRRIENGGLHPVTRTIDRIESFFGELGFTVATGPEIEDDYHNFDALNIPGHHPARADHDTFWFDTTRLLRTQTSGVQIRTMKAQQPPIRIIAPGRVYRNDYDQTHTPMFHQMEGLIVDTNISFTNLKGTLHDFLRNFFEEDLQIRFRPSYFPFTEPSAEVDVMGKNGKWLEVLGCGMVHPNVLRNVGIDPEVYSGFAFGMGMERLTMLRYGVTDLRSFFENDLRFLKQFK
T2 sequence (P08312 whole entry): as above
T2 sequence (P07395 whole entry, further chain): as the sequence (P07395 whole entry) above
Chain of GluRS (P04805 whole entry): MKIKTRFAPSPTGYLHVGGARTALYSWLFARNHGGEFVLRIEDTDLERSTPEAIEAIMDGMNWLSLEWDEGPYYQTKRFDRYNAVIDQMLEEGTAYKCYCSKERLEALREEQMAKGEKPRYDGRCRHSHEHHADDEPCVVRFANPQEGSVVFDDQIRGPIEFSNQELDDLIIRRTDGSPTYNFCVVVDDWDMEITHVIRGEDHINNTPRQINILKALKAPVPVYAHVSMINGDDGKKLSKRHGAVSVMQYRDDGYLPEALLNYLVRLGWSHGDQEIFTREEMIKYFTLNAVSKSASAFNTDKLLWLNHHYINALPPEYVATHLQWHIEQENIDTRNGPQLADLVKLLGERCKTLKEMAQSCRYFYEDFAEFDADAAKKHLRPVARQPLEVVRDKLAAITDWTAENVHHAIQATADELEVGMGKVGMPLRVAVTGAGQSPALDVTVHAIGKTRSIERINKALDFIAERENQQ

Compound | IC50 [1] [µM] | IC50 [2] [µM] | turboGFP fluorescence activity (percent relative activity) ([2]; 1 nM Phe-SA inhibitor) [%] | inhibition of PheRS (no protein synthesized with uncharged tRNAs) [3]
Nc1ncnc2c1ncn2[C@@H]1O[C@H](COS(=O)(=O)NC(=O)[C@@H](N)CCC(=O)O)[C@@H](O)[C@H]1O [Glu-SA] | 0.054 | – | – | –
Nc1ncnc2c1ncn2[C@@H]1O[C@H](COS(=O)(=O)NC(=O)[C@@H](N)Cc2ccccc2)[C@@H](O)[C@H]1O [Phe-SA, 5′-O-[N-(Phenylalanyl)sulfamoyl] adenosine] | – | 0.0008 | ~50 | completely inhibited

Source: patent US20100184134A1, “DUAL CHARGING SYSTEM FOR SELECTIVELY INTRODUCING NON-NATIVE AMINO ACIDS INTO PROTEINS USING AN IN VITRO SYNTHESIS METHOD” (priority 2009, published 2010)
